Assay results reported in PubChem BioAssay AID2060897 (Molecular Pharmacology Branch, DTP, NCI, 2025).

Test system: 966289-007-R4-J1-PDC complex spheroid viability
Assay: Anticancer human tumor 966289-007-R4-J1-PDC patient-derived pancreatic adenocarcinoma cell line growth inhibition [RAS]
Conditions: for IC50: curve of first compound; for viability, T/C: stronger effect = lower value
Source text: RAS pathway inhibitors in Combinations in Complex Spheroids
A high-throughput screen of multi-cell type tumor spheroids was designed to identify active combinations of RAS pathway inhibitors and targeted small molecules. Complex spheroids include a stromal component modeled by human endothelial cells (HUVEC) and fibroblasts modeled by human mesenchymal stem cells (MSCs). The concentration ranges selected for each drug and investigational agent were based upon clinically achievable concentrations if the clinical Cmax of the agent was known.
Compounds. The drugs and investigational agents: abemaciclib (NSC768073), cobimetinib (NSC768068), divarasib (GDC6063, NSC841802), docetaxel (NSC628503), GDC-1971 (RLY-1971, NSC841576), gemcitabine (NSC613327), inavolisib (NSC800729), ipatasertib (NSC767898), KB-0742 (NSC834161), MRTX-1133 (NSC836407), osimertinib (NSC779217), RMC-4630 (NSC839698), RMC-6236 (NSC851965), RMC-6291 (NSC852671), Ro-3306 (NSC812927), sapanisertib (NSC764658), SN-38 (NSC673596), staurosporine (NSC755774), SY5609 (NSC837396), and tovorafenib (DAY101, NSC766906), were obtained from the National Cancer Institute (NCI) Developmental Therapeutics Program Chemical Repository. The FDA-approved anticancer drug set is available from the NCI Developmental Therapeutics Program. […] The stock solutions were prepared in dimethyl sulfoxide (DMSO, Sigma-Aldrich, St. Louis, MO, cat. D2650) at 800-fold the tested concentration and stored at -70 degrees C prior to their use. All drugs and investigational agents were tested over a range starting from a high concentration at or near the clinical Cmax and decreasing in half-log increments. If the clinical Cmax for an agent had not been determined, the highest concentration tested was 10 microM.
Cell Culture. All cells were maintained in an incubator at 37 degrees C and 5% CO2 with 95% humidity. The PDC lines were cultured according to standard operating procedures established by the NCI PDMR. All PDCs were thawed and cultured in Matrigel-coated flasks prepared with a working solution of 1X Ham's F-12 nutrient mix, without supplementation (Invitrogen, Waltham, MA, cat. 11765054), 100 U/mL penicillin-streptomycin (Invitrogen, cat. 15140122), and 2.5% Matrigel (Corning Inc., Corning, NY, cat. 354248) for the first three passages. The 362531-283-R-J2-PDC and 782815-120-R-J1-PDC lines were cultured in 6C/Colon 1B media, which includes advanced DMEM/F-12 (Thermo Fisher Scientific, cat. 12634028), 10 mM HEPES (Thermo Fisher Scientific, cat. 15630080), 1X GlutaMAX supplement (Thermo Fisher Scientific, cat. 35050061), 0.1 mg/mL primocin (InvivoGen, San Diego, CA, cat. ant-pm-2), 10% defined fetal bovine serum, heat inactivated (HyClone Laboratories Inc., Logan, UT, cat. SH30070.03HI), 50% L-WRN conditioned media (ATCC, cat. CRL-3276), 1.25 mM N-Acetyl-L-cysteine (Sigma-Aldrich, cat. A9165), 10 mM nicotinamide (Sigma-Aldrich, cat. N0636), 1X B-27 supplement (Thermo Fisher Scientific, cat. 17504044), 1X N-2 supplement (Thermo Fisher Scientific, cat. 17502048), 50 ng/mL human EGF (Thermo Fisher Scientific, cat. PHG0311), and 10 microM Y-27632 dihydrochloride (Tocris Bioscience, cat. 1254). The K12877-001-R-J1-PDC line was cultured in 6I media, which includes all 6C/Colon 1B media plus 10 ng/mL human FGF-10 (PeproTech, cat. 100-26), 1 ng/mL human FGF-2 (PeproTech, cat. 100-18B), 1 µM prostaglandin E2 (Tocris Bioscience, cat. 2296), […] hydrocortisone (Sigma-Aldrich, cat. H4001), and […] bovine insulin (Sigma-Aldrich, cat. I6634). The K86415-001-R-J1-PDC line was cultured in 6D media, which includes all 6C/Colon 1B media components minus the L-WRN conditioned media. The 485176-168-R4-J1-PDC was cultured in PANC media, which includes all 6C/Colon 1B media plus 100 ng/mL human FGF-10 (PeproTech, cat. 100-26), 500 nM SB-431542 (Selleckchem, cat. S1067), and 10 nM gastrin (Tocris Bioscience, cat. 3006). […]
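Note: spheroids exposed to agents for one week before readout.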
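Throughout, for viability, T/C: percent viability relative to DMSO vehicle control wells as 100%.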

Q: Which results are given for `CC(Nc1ccc2c(c1)OCCn1cc(N3C(=O)OCC3C(F)F)nc1-2)C(N)=O` (configuration not stated) + CCn1c(-c2cccnc2C(C)OC)c2c3cc(ccc31)N1CCOC(CC(NC(=O)C(C(C)C)N(C)C(=O)C3(F)CCN(C(=O)C#CC(C)(C)N(C)C)CC3)C(=O)N3CCCC(N3)C(=O)OCC(C)(C)C2)C1?
A: IC50 (second compound 0.000949 µM): > 10 µM; IC50 (second compound 0.003 µM): > 10 µM; IC50 (second compound 0.00949 µM): > 10 µM; IC50 (second compound 0.03 µM): > 10 µM; IC50 (second compound 0.0949 µM): > 10 µM; IC50 (second compound 0.3 µM): > 10 µM; viability, T/C (second compound 0.000949 µM, first compound 0.0316 µM): 97.2%; viability, T/C (second compound 0.000949 µM, first compound 0.1 µM): 114%; viability, T/C (second compound 0.000949 µM, first compound 0.316 µM): 121%; viability, T/C (second compound 0.000949 µM, first compound 1 µM): 77.1%; viability, T/C (second compound 0.000949 µM, first compound 3.16 µM): 90.5%; viability, T/C (second compound 0.000949 µM, first compound 10 µM): 74.9%; viability, T/C (second compound 0.003 µM, first compound 0.0316 µM): 93.7%; viability, T/C (second compound 0.003 µM, first compound 0.1 µM): 99.9%; viability, T/C (second compound 0.003 µM, first compound 0.316 µM): 111%; viability, T/C (second compound 0.003 µM, first compound 1 µM): 83.4%; viability, T/C (second compound 0.003 µM, first compound 3.16 µM): 78.2%; viability, T/C (second compound 0.003 µM, first compound 10 µM): 86.1%; viability, T/C (second compound 0.00949 µM, first compound 0.0316 µM): 73.8%; viability, T/C (second compound 0.00949 µM, first compound 0.1 µM): 105%; viability, T/C (second compound 0.00949 µM, first compound 0.316 µM): 111%; viability, T/C (second compound 0.00949 µM, first compound 1 µM): 92.6%; viability, T/C (second compound 0.00949 µM, first compound 3.16 µM): 103%; viability, T/C (second compound 0.00949 µM, first compound 10 µM): 77.3%; viability, T/C (second compound 0.03 µM, first compound 0.0316 µM): 60.7%; viability, T/C (second compound 0.03 µM, first compound 0.1 µM): 94.2%; viability, T/C (second compound 0.03 µM, first compound 0.316 µM): 106%; viability, T/C (second compound 0.03 µM, first compound 1 µM): 82.3%; viability, T/C (second compound 0.03 µM, first compound 3.16 µM): 114%; viability, T/C (second compound 0.03 µM, first compound 10 µM): 88.5%; viability, T/C (second compound 0.0949 µM, first compound 0.0316 µM): 69.8%; viability, T/C (second compound 0.0949 µM, first compound 0.1 µM): 91.7%; viability, T/C (second compound 0.0949 µM, first compound 0.316 µM): 105%; viability, T/C (second compound 0.0949 µM, first compound 1 µM): 108%; viability, T/C (second compound 0.0949 µM, first compound 3.16 µM): 105%; viability, T/C (second compound 0.0949 µM, first compound 10 µM): 82%; viability, T/C (second compound 0.3 µM, first compound 0.0316 µM): 101%; viability, T/C (second compound 0.3 µM, first compound 0.1 µM): 94.8%; viability, T/C (second compound 0.3 µM, first compound 0.316 µM): 124%; viability, T/C (second compound 0.3 µM, first compound 1 µM): 97%; viability, T/C (second compound 0.3 µM, first compound 3.16 µM): 135%; viability, T/C (second compound 0.3 µM, first compound 10 µM): 73.8%

Q: Which results are given for `C=CC(=O)Nc1cc(Nc2nccc(-c3cn(C)c4ccccc34)n2)c(OC)cc1N(C)CCN(C)C` + C#Cc1c(F)ccc2cc(O)cc(-c3ncc4c(N5CC6CCC(C5)N6)nc(OCC56CCCN5CC(F)C6)nc4c3F)c12?
A: IC50 (second compound 0.0316 µM): > 1 µM; IC50 (second compound 0.1 µM): > 1 µM; IC50 (second compound 0.316 µM): > 1 µM; IC50 (second compound 1 µM): > 1 µM; IC50 (second compound 3.16 µM): > 1 µM; IC50 (second compound 10 µM): > 1 µM; viability, T/C (second compound 0.0316 µM, first compound 0.00316 µM): 107%; viability, T/C (second compound 0.0316 µM, first compound 0.01 µM): 96%; viability, T/C (second compound 0.0316 µM, first compound 0.0316 µM): 101%; viability, T/C (second compound 0.0316 µM, first compound 0.1 µM): 96.3%; viability, T/C (second compound 0.0316 µM, first compound 0.316 µM): 94.2%; viability, T/C (second compound 0.0316 µM, first compound 1 µM): 94%; viability, T/C (second compound 0.1 µM, first compound 0.00316 µM): 94.8%; viability, T/C (second compound 0.1 µM, first compound 0.01 µM): 103%; viability, T/C (second compound 0.1 µM, first compound 0.0316 µM): 99.8%; viability, T/C (second compound 0.1 µM, first compound 0.1 µM): 110%; viability, T/C (second compound 0.1 µM, first compound 0.316 µM): 90.4%; viability, T/C (second compound 0.1 µM, first compound 1 µM): 88.8%; viability, T/C (second compound 0.316 µM, first compound 0.00316 µM): 108%; viability, T/C (second compound 0.316 µM, first compound 0.01 µM): 92.6%; viability, T/C (second compound 0.316 µM, first compound 0.0316 µM): 114%; viability, T/C (second compound 0.316 µM, first compound 0.1 µM): 105%; viability, T/C (second compound 0.316 µM, first compound 0.316 µM): 105%; viability, T/C (second compound 0.316 µM, first compound 1 µM): 87.2%; viability, T/C (second compound 1 µM, first compound 0.00316 µM): 102%; viability, T/C (second compound 1 µM, first compound 0.01 µM): 93.1%; viability, T/C (second compound 1 µM, first compound 0.0316 µM): 97%; viability, T/C (second compound 1 µM, first compound 0.1 µM): 106%; viability, T/C (second compound 1 µM, first compound 0.316 µM): 97.9%; viability, T/C (second compound 1 µM, first compound 1 µM): 82.8%; viability, T/C (second compound 3.16 µM, first compound 0.00316 µM): 108%; viability, T/C (second compound 3.16 µM, first compound 0.01 µM): 107%; viability, T/C (second compound 3.16 µM, first compound 0.0316 µM): 129%; viability, T/C (second compound 3.16 µM, first compound 0.1 µM): 101%; viability, T/C (second compound 3.16 µM, first compound 0.316 µM): 114%; viability, T/C (second compound 3.16 µM, first compound 1 µM): 106%; viability, T/C (second compound 10 µM, first compound 0.00316 µM): 97.5%; viability, T/C (second compound 10 µM, first compound 0.01 µM): 109%; viability, T/C (second compound 10 µM, first compound 0.0316 µM): 108%; viability, T/C (second compound 10 µM, first compound 0.1 µM): 118%; viability, T/C (second compound 10 µM, first compound 0.316 µM): 91.3%; viability, T/C (second compound 10 µM, first compound 1 µM): 115%

Q: With `CC1(C)CCC(Nc2ncc(C(F)(F)F)c(-c3c[nH]c4c(P(C)(C)=O)c(C#N)ccc34)n2)CN1` (configuration not stated) as the compound, how does the viability, T/C (compound 0.03 µM) read?
A: 15.1% [middle of 4 runs]

Q: And the viability, T/C (compound 0.0949 µM)?
A: 10.5% [middle of 4 runs]

Q: What about the viability, T/C (compound 0.3 µM) of the same compound?
A: 8.72% [middle of 4 runs]
